Reference: patent publication US10829478B2, “5-[3-[piperazin-1-yl]-3-oxo-propyl]-imidazolidine-2,4-dione derivatives as ADAMTS 4 and 5 inhibitors for treating e.g. osteoarthritis” (Galapagos NV, priority 2016, dated 2020)

How the values were obtained:
human ADAMTS-5 = human ADAMTS-5 (Homo sapiens (Human), UniProt Q9UNA0); test: hADAMTS-5 TBIS-1 cleavage assay, Protocol 3; type: biochemical; details: 90 min at 37° C., read-out: hADAMTS-5 potency IC50
Experimental: The reaction is initiated by adding to the assay plate TBIS-1 (10 μL, 4.5 μM, Anaspec) in the same buffer.
Finally, the fluorescence is read on the Envision (Perkin Elmer) after an incubation of 90 min at 37° C. (Excitation 485 nm, emission 530).

human ADAMTS6 = human ADAMTS6 (Homo sapiens (Human), UniProt Q9UKP5); test: hADAMTS-6 fluorescent based protease assay (520 MMP FRET substrate XII); type: biochemical; details: 37° C. for 2 h; read-out: hADAMTS-6 potency IC50
Experimental: The IC50 value for test compounds can be determined in a fluorescent based protease assay.
The substrate contains sequence Arg-Pro-Lys-Pro-Tyr-Ala-Nva-Trp-Met-Lys (SEQ ID NO: 7) with attached a fluorescent probe and a quencher. Without ADAMTS6, the emission of the probe is quenched. If the substrate is cleaved by ADAMTS6, the emission of the probe is not quenched anymore. Inhibition of ADAMTS6 activity, will result in a decrease of the signal.
To perform the assay, 4 μL of a dilution series of compound in water, starting from 20 μM highest concentration, ⅕ dilution, is added to the wells. 2 ng ADAMTS6 enzyme is diluted in 25 mM Tris pH8.0, 0.05% CHAPS, 2.5 mM CaCl2 in a total volume of 26 μL (final concentration 0.73 nM). The reaction is started by addition of 10 μL of 1 μM 520 MMP FRET Substrate XII (final concentration, diluted in same buffer as described above) and the mixture is incubated at 37° C. for 2 h. […] After this incubation, cleavage of the substrate is measured using the Envision (Perkin Elmer, exc485/em530).

Chain of human ADAMTS-5 (Q9UNA0 262-930): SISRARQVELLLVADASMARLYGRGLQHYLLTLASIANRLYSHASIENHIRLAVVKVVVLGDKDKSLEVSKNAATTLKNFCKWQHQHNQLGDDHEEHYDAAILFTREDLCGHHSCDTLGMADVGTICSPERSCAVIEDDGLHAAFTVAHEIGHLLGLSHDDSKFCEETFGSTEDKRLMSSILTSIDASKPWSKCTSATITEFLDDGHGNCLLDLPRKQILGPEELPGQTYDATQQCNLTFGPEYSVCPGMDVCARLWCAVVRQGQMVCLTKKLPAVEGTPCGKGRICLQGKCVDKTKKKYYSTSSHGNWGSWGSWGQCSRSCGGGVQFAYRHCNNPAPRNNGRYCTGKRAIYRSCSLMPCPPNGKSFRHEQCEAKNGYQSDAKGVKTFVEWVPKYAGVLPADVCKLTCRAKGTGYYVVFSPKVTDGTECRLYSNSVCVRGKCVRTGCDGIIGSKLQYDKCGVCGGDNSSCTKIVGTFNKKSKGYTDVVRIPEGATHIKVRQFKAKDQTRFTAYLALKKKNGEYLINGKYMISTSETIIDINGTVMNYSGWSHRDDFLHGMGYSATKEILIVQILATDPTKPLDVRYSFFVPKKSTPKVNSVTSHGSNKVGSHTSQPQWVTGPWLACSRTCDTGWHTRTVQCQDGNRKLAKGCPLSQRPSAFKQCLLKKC
Chain of human ADAMTS6 (Q9UKP5 other isoform, or with tags, fused parts or gaps): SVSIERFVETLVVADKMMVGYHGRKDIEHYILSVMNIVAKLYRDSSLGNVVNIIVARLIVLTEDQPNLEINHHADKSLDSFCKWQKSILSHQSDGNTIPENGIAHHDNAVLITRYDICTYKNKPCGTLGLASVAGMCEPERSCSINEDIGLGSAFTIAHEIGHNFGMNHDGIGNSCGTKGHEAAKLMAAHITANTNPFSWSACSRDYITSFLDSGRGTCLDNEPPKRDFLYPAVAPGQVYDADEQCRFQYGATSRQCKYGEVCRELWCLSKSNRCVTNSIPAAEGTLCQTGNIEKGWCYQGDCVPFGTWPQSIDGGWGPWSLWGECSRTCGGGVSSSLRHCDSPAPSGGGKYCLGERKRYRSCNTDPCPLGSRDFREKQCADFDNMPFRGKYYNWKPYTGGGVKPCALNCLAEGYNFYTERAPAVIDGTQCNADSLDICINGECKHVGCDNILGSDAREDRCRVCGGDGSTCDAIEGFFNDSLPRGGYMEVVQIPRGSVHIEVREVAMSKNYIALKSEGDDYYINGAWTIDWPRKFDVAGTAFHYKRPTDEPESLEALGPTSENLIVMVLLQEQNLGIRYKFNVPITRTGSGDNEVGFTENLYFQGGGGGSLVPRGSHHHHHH

Compound | IC50 (human ADAMTS-5) [nM] | IC50 (human ADAMTS6) [nM]
COc1cc(N2CCN(C(=O)[C@@H](C)C[C@@]3(C)NC(=O)NC3=O)C[C@@H]2C)c(C)cc1Cl (mixture of isomers) [Cpd 45, 5-[3-[(3S)-4-(4-chloro-5-methoxy-2-methyl-phenyl)-3-methyl-piperazin-1-yl]-2-methyl-3-oxo-propyl]-5-methyl-imidazolidine-2,4-dione] | > 100 | > 100
COc1ccc(C)c(N2CCN(C(=O)CCC3(C)NC(=O)NC3=O)CC2)c1 (stereo not drawn) [Cpd 32, 5-[3-[4-(5-methoxy-2-methyl-phenyl)piperazin-1-yl]-3-oxo-propyl]-5-methyl-imidazolidine-2,4-dione] | > 100 | > 100
COc1cccc(N2CCN(C(=O)CCC3(C)NC(=O)NC3=O)CC2)c1C (stereo not drawn) [Cpd 33, 5-[3-[4-(3-methoxy-2-methyl-phenyl)piperazin-1-yl]-3-oxo-propyl]-5-methyl-imidazolidine-2,4-dione] | > 100 | > 100
COc1ccc(C)c(N2CCN(C(=O)CCC3(C)NC(=O)NC3=O)C[C@@H]2C)c1 (stereo partly drawn) [Cpd 35, 5-[3-[(3S)-4-(5-methoxy-2-methyl-phenyl)-3-methyl-piperazin-1-yl]-3-oxo-propyl]-5-methyl-imidazolidine-2,4-dione] | > 100 | > 100
COc1c(Cl)cccc1N1CCN(C(=O)CC[C@@]2(C)NC(=O)NC2=O)CC1 [Cpd 68, (5R)-5-[3-[4-(3-chloro-2-methoxy-phenyl)piperazin-1-yl]-3-oxo-propyl]-5-methyl-imidazolidine-2,4-dione] |  | > 100
CCc1cc(CC)cc(N2CCN(C(=O)CC[C@@]3(C)NC(=O)NC3=O)CC2)c1 [Cpd 72, (5R)-5-[3-[4-(3,5-diethylphenyl)piperazin-1-yl]-3-oxo-propyl]-5-methyl-imidazolidine-2,4-dione] |  | > 100
COc1ccc(Cl)cc1N1CCN(C(=O)CC[C@@]2(C)NC(=O)NC2=O)CC1 [Cpd 77, (5R)-5-[3-[4-(5-chloro-2-methoxy-phenyl)piperazin-1-yl]-3-oxo-propyl]-5-methyl-imidazolidine-2,4-dione] |  | > 100
COc1cc(F)ccc1N1CCN(C(=O)CC[C@@]2(C)NC(=O)NC2=O)C[C@@H]1C [Cpd 81, (5R)-5-[3-[(3 S)-4-(4-fluoro-2-methoxy-phenyl)-3-methyl-piperazin-1-yl]-3-oxo-propyl]-5-methyl-imidazolidine-2,4-dione] |  | > 100
COc1c(F)cccc1N1CCN(C(=O)CC[C@@]2(C)NC(=O)NC2=O)CC1 [Cpd 82, (5R)-5-[3-[4-(3-fluoro-2-methoxy-phenyl)piperazin-1-yl]-3-oxo-propyl]-5-methyl-imidazolidine-2,4-dione] |  | > 100
COc1ccc(F)cc1N1CCN(C(=O)CC[C@@]2(C)NC(=O)NC2=O)CC1 [Cpd 83, (5R)-5-[3-[4-(5-fluoro-2-methoxy-phenyl)piperazin-1-yl]-3-oxo-propyl]-5-methyl-imidazolidine-2,4-dione] |  | > 100
COc1c(F)cccc1N1CCN(C(=O)CC[C@@]2(C)NC(=O)NC2=O)C[C@@H]1C [Cpd 84, (5R)-5-[3-[(3 S)-4-(3-fluoro-2-methoxy-phenyl)-3-methyl-piperazin-1-yl]-3-oxo-propyl]-5-methyl-imidazolidine-2,4-dione] |  | > 100
CC(C)c1cc(N2CCN(C(=O)CC[C@@]3(C)NC(=O)NC3=O)CC2)ccc1Cl [Cpd 87, (5R)-5-[3-[4-(4-chloro-3-isopropyl-phenyl)piperazin-1-yl]-3-oxo-propyl]-5-methyl-imidazolidine-2,4-dione] |  | 50 to 100
CCc1cc(N2CCN(C(=O)CC[C@@]3(C)NC(=O)NC3=O)CC2)c(OC)cc1Cl [Cpd 102, (5R)-5-[3-[4-(4-chloro-5-ethyl-2-methoxy-phenyl)piperazin-1-yl]-3-oxo-propyl]-5-methyl-imidazolidine-2,4-dione] |  | > 100
CCc1cc(N2CCN(C(=O)CC[C@@]3(C)NC(=O)NC3=O)C[C@@H]2C)c(OC)cc1Cl [Cpd 103, (5R)-5-[3-[(3 S)-4-(4-chloro-5-ethyl-2-methoxy-phenyl)-3-methyl-piperazin-1-yl]-3-oxo-propyl]-5-methyl-imidazolidine-2,4-dione] |  | > 100
COc1ccc(OC(F)(F)F)c(N2CCN(C(=O)CC[C@@]3(C)NC(=O)NC3=O)C[C@@H]2C)c1 [Cpd 108, (5R)-5-[3-[(3S)-4-[5-methoxy-2-(trifluoromethoxy)phenyl]-3-methyl-piperazin-1-yl]-3-oxo-propyl]-5-methyl-imidazolidine-2,4-dione] |  | > 100
COc1cc(F)c(F)cc1N1CCN(C(=O)CC[C@@]2(C)NC(=O)NC2=O)C[C@@H]1C [Cpd 113, (5R)-5-[3-[(3 S)-4-(4,5-difluoro-2-methoxy-phenyl)-3-methyl-piperazin-1-yl]-3-oxo-propyl]-5-methyl-imidazolidine-2,4-dione] | > 100 | > 100

Further lines, results first:

IC50 (human ADAMTS-5) [nM] | IC50 (human ADAMTS6) [nM] | Compound
25 to 50 | 0.001 to 25 | COC[C@]1(C[C@H](C)C(=O)N2CCN(c3cc(C)c(Cl)c(OC)c3)[C@@H](C)C2)NC(=O)NC1=O (mixture of isomers) [Cpd 126, 5-[3-[(3S)-4-(4-chloro-3-methoxy-5-methyl-phenyl)-3-methyl-piperazin-1-yl]-2-methyl-3-oxo-propyl]-5-(methoxymethyl)imidazolidine-2,4-dione]
50 to 100 | 0.001 to 25 | COc1cc(N2CCN(C(=O)[C@@H](C)C[C@@]3(C)NC(=O)NC3=O)C[C@@H]2C)cc(OC)c1Cl (stereo in doubt) [Cpd 44, 5-[3-[(3S)-4-(4-chloro-3,5-dimethoxy-phenyl)-3-methyl-piperazin-1-yl]-2-methyl-3-oxo-propyl]-5-methyl-imidazolidine-2,4-dione]
> 100 | 50 to 100 | COc1cc(N2CCN(C(=O)[C@H](C)C[C@@]3(C4CC4)NC(=O)NC3=O)C[C@@H]2C)cc(F)c1F (stereo in doubt) [Cpd 134, 5-cyclopropyl-5-[3-[(3S)-4-(3,4-difluoro-5-methoxy-phenyl)-3-methyl-piperazin-1-yl]-2-methyl-3-oxo-propyl]imidazolidine-2,4-dione]
 | 50 to 100 | COc1cc(N2CCN(C(=O)CC[C@@]3(C)NC(=O)NC3=O)CC2)c(C)cc1F [Cpd 67, (5R)-5-[3-[4-(4-fluoro-5-methoxy-2-methyl-phenyl)piperazin-1-yl]-3-oxo-propyl]-5-methyl-imidazolidine-2,4-dione]
 | 25 to 50 | C[C@]1(CCC(=O)N2CCN(c3ccc(Cl)c(OC(F)(F)F)c3)CC2)NC(=O)NC1=O [Cpd 88, (5R)-5-[3-[4-[4-chloro-3-(trifluoromethoxy)phenyl]piperazin-1-yl]-3-oxo-propyl]-5-methyl-imidazolidine-2,4-dione]
 | 0.001 to 25 | COc1cc(Cl)c(Cl)cc1N1CCN(C(=O)CC[C@@]2(C)NC(=O)NC2=O)C[C@@H]1C [Cpd 92, (5R)-5-[3-[(3 S)-4-(4,5-dichloro-2-methoxy-phenyl)-3-methyl-piperazin-1-yl]-3-oxo-propyl]-5-methyl-imidazolidine-2,4-dione]
 | 25 to 50 | COc1cc(N2CCN(C(=O)CC[C@@]3(C)NC(=O)NC3=O)CC2)c(OC)cc1Cl [Cpd 97, (5R)-5-[3-[4-(4-chloro-2,5-dimethoxy-phenyl)piperazin-1-yl]-3-oxo-propyl]-5-methyl-imidazolidine-2,4-dione]
 | 0.001 to 25 | CCc1cc(N2CCN(C(=O)CCC3(CC(=O)O)NC(=O)NC3=O)C[C@@H]2C)ccc1Cl (stereo partly drawn) [Cpd 98, 2-[4-[3-[(3 S)-4-(4-chloro-3-ethyl-phenyl)-3-methyl-piperazin-1-yl]-3-oxo-propyl]-2,5-dioxo-imidazolidin-4-yl]acetic acid]
 | 0.001 to 25 | CCc1cc(N2CCN(C(=O)CCC3(c4cccc(C)n4)NC(=O)NC3=O)C[C@@H]2C)ccc1Cl (stereo partly drawn) [Cpd 100, 5-[3-[(3 S)-4-(4-chloro-3-ethyl-phenyl)-3-methyl-piperazin-1-yl]-3-oxo-propyl]-5-(6-methyl-2-pyridyl)imidazolidine-2,4-dione]
 | 0.001 to 25 | Cc1cccc(C2(CCC(=O)N3CCN(c4ccc(Cl)c(OC(F)(F)F)c4)[C@@H](C)C3)NC(=O)NC2=O)n1 (stereo partly drawn) [Cpd 101, 5-[3-[(3 S)-4-[4-chloro-3-(trifluoromethoxy)phenyl]-3-methyl-piperazin-1-yl]-3-oxo-propyl]-5-(6-methyl-2-pyridyl)imidazolidine-2,4-dione]
 | 0.001 to 25 | COc1cc(N2CCN(C(=O)CC[C@@]3(C)NC(=O)NC3=O)C[C@@H]2C)c(OC)cc1Cl [Cpd 104, (5R)-5-[3-[(3 S)-4-(4-chloro-2,5-dimethoxy-phenyl)-3-methyl-piperazin-1-yl]-3-oxo-propyl]-5-methyl-imidazolidine-2,4-dione]
> 100 | 0.001 to 25 | COc1cc(N2CCN(C(=O)CC[C@@]3(C)NC(=O)NC3=O)C[C@@H]2C)cc(OC)c1Cl [Cpd 110, (5R)-5-[3-[(3 S)-4-(4-chloro-3,5-dimethoxy-phenyl)-3-methyl-piperazin-1-yl]-3-oxo-propyl]-5-methyl-imidazolidine-2,4-dione]
> 100 | 0.001 to 25 | CCOc1cc(N2CCN(C(=O)CC[C@@]3(C)NC(=O)NC3=O)C[C@@H]2C)ccc1Cl [Cpd 111, (5R)-5-[3-[(3 S)-4-(4-chloro-3-ethoxy-phenyl)-3-methyl-piperazin-1-yl]-3-oxo-propyl]-5-methyl-imidazolidine-2,4-dione]
